Data published in ChEMBL document CHEMBL1130925, “Anti-AIDS agents. 33. Synthesis and anti-HIV activity of mono-methyl substituted 3',4'-di-O-(-)-camphanoyl-(+)-cis-khellactone (DCK) analogues” (Bioorg Med Chem Lett, 1998).

Experiments:
[1] = Compound was tested for anti HIV activity by measuring therapeutic index in H9 lymphocytes; IC50/EC50; assay type: organism-based; conditions: human immunodeficiency virus, H9 lymphocytes infected with HIV; read-out: TI
H9 [2] = experiment: Compound was evaluated for anti-HIV activity in acutely infected H9 Lymphocytes; assay type: functional, cell-based; conditions: Homo sapiens
H9 [3] = experiment: Compound was evaluated for anti-HIV activity and the concentration that inhibits uninfected H9 cell growth by 50%; assay type: functional, cell-based; conditions: Homo sapiens

Structure (SMILES) | selectivity ratio [1] | EC50 (H9 [2]) | IC50 (H9 [3])
CC1(C)Oc2ccc3ccc(=O)oc3c2[C@@H](OC(=O)C23CCC(C)(C(=O)O2)C3(C)C)[C@H]1OC(=O)C12CCC(C)(C(=O)O1)C2(C)C (stereo not given in full) | 137000 |  | 
Cc1cc2ccc3c(c2oc1=O)[C@@H](OC(=O)C12CCC(C)(C(=O)O1)C2(C)C)[C@@H](OC(=O)C12CCC(C)(C(=O)O1)C2(C)C)C(C)(C)O3 (stereo not given in full) |  | 0.000157 nM | > 157000 nM
Cc1cc2ccc(=O)oc2c2c1OC(C)(C)[C@H](OC(=O)C13CCC(C)(C(=O)O1)C3(C)C)[C@@H]2OC(=O)C12CCC(C)(C(=O)O1)C2(C)C (stereo not given in full) | 220 | 150 nM | 33000 nM
Cc1cc2c(c3oc(=O)ccc13)[C@@H](OC(=O)C13CCC(C)(C(=O)O1)C3(C)C)[C@@H](OC(=O)C13CCC(C)(C(=O)O1)C3(C)C)C(C)(C)O2 (stereo not given in full) |  | 0.000423 nM | > 157000 nM
Cc1cc(=O)oc2c3c(ccc12)OC(C)(C)[C@H](OC(=O)C12CCC(C)(C(=O)O1)C2(C)C)[C@@H]3OC(=O)C12CCC(C)(C(=O)O1)C2(C)C (stereo not given in full) |  | 0.000157 nM | > 157000 nM
